Read-outs that look alike come from different tables or passages of the source.
How the values were obtained:
[1] = test system: LTD4 induced bronchoconstriction; assay: In vivo inhibition of LTD4 induced bronchospasm in guinea pigs (exogenously administered leukotrienes); design: species or system guinea pig; conditions: Cavia porcellus, 10 minutes before induction of bronchospasm (LTD4)
[2] = test system: acute inflammatory response (carrageenan paw edema); assay: Rat carrageenan paw edema assay; assay type: in vivo; conditions: po; for inhibition in vivo at 50 mg/kg: 50 mg/kg peroral, 1 hour prior to carrageenan, edema at 3 hours
Method: The compounds of the invention are tested in the rat carrageenan paw edema assay to determine their ability to inhibit the acute inflammatory response. 140-180 gm male Sprague-Dawley rats, in groups of 6 animals, are injected subcutaneously in the right paw with 0.1 ml of 1% carrageenan at zero time. Mercury plethysmographic readings (ml) of the paw are made at zero time and 3 hours later. Test compounds are suspended or dissolved in 0.5% methylcellulose and given perorally 1 hour prior to carrageenan administration. The increase in paw volume (edema in ml.) produced by the carrageenan is measured. […] Unpaired Student's t-test is used to determine statistical significance.

[3] = test system: 5,12-diHETE synthesis by rat glycogen-elicited polymorphonuclear leukocytes; assay: Inhibition of 5,12-diHETE synthesis by rat glycogen-elicited polymorphonuclear leukocytes; assay type: cell-based; conditions: Leukocyte, rat PMN
Method: This is especially true with respect to 5,12-diHETE, which is also denoted as LTB4 [see Ford-Hitchinson, J. Roy. Soc. Med., 74, 831 (1981)]. The assay of this Example measures the ability of the compounds of the invention to inhibit the synthesis of 5,12-diHETE by rat glycogen-elicited polymorphonuclear leukocytes.
(§1) Peritoneal PMN are obtained from female Wistar rats (150-250 g) that received an i.p. injection of 6% glycogen (10 ml). After 24 hours, rats are killed by CO2 asphyxiation and peritoneal cells are harvested by peritoneal lavage using Ca^++ and Mg^++ free Hanks' balanced salt solution (HBSS). The peritoneal exudate is centrifuged at 400 g for 10 minutes. After centrifugation, the lavaged fluid is removed and the cell pellet is resuspended in HBSS containing Ca^++ and Mg^++ and 10 mM L-cysteine at a concentration of 2×10^7 cells/ml. To 1 ml portions of cell suspension, test drugs or vehicle are added and incubated at 37° C. for 10 minutes. Following this preincubation, the calcium ionophore (10 μM), A23187, is added together with 0.5 μCi [^14 C] arachidonic acid and further incubated for 10 minutes. The reaction is stopped by the addition of ice cold water (3 ml) and acidification to pH 3.5. Lipoxygenase products are then extracted twice into diethyl ether. The pooled ether extracts are evaporated to dryness under nitrogen and the residue is redissolved in a small volume of methanol and spotted on aluminum backed pre-coated thin layer chromatographic plates. The samples are then co-chromatographed with authentic reference 5,12-diHETE in the solvent system-hexane:ether:acetic acid (50:50:3). After chromatography, the areas associated with 5,12-diHETE standard are identified by autoradiography, cut out and quantitated by liquid scintillation.
Results are expressed as the 50% Inhibitory concentration, or as percent inhibition at a given.

[4] = test system: TxB2 synthesis (cyclooxygenase); assay: Inhibition of synthesis of cyclooxygenase oxidation product TxB2 (rat polymorphonuclear leukocytes); assay type: cell-based; conditions: Leukocyte, rat PMN
Method: as §1
The procedure of Example 17 is also employed for the determination of the ability of the compounds of the invention to inhibit the synthesis of the arachidonic acid cyclooxygenase oxidation product TxB2.
In this assay, the procedure of Example 17 is carried out as described. However, in order to determine cyclooxygenase activity, the samples are cochromatographed with authentic reference TxB2 in the solvent system ethyl acetate:formic acid (80:1) and the upper phase of ethyl acetate:isoctane:acetic acid:water (110:50:20:100). After chromatography, the areas associated with TxB2 standard are identified by autoradiography, cut out and quantitated by liquid scintillation techniques.
The results are calculated as in Example 12 and presented below: […]

[5] = target: T1, LTD4 (contraction of isolated guinea pig trachea) (Cavia porcellus, UniProt Q2NNR5); assay: Isolated guinea pig trachea assay, LTD4 antagonist activity; assay type: cell-based; conditions: read-out: pKB ± S.E. (converted)
T1 construct: from tissue; host or cells: isolated tracheal rings of male Hartley guinea pigs
T1 sequence (Q2NNR5 1-340): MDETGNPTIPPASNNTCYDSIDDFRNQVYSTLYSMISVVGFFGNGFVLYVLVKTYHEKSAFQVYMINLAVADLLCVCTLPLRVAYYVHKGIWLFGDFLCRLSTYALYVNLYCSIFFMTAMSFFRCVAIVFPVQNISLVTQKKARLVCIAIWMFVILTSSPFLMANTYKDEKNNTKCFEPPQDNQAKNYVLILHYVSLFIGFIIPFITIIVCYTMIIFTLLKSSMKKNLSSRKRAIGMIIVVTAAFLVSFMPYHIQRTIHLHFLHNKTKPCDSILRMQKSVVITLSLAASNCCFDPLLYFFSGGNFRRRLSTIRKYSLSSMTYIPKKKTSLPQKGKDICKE
Method: The compounds of the invention are tested in the isolated guinea pig trachea assay to assess their LTD4 antagonist activity. Male Hartley guinea pigs (350-400 g) are euthanized by a blow to the head, the neck is opened and the trachea removed. The trachea is maintained in aerated physiological salt solution, cleared of connective tissue and fat and cut into rings approximately 2 mm in width (usually containing two cartilaginous segments per ring). Two pieces of silk suture are then passed through the lumen of the tracheal ring and are tied around the cartilage, one on each side of the trachealis muscle. The tracheal ring is suspended between a glass hook and a force displacement transducer in a 10 ml organ bath for measurement of isometric tension. Tissues are maintained at 37° C. in aerated (95% O2 /5% CO2) physiological salt solution of the following composition: […] The tracheal rings are maintained at 2 g resting tension and equilibrated for 45 minutes (with frequent washing and readjustment of resting tension). The tracheal rings are first contracted by the addition of carbachol (3×10^-6 M), to determine tissue responsiveness and establish a reference contraction. On attainment of a stable level of contraction (approximately 30 minutes), the tissues are washed several times until baseline tension has been restored and then re-equilibrated for 30 minutes. The tissues are then incubated for 45 minutes with a test antagonist (either 1×10^-6 M or 1×10^-5 M) or 10 μl of an appropriate solvent control (control, non-treated). One tissue in each group serves as the control. Twenty minutes prior to the construction of the LTD4 cumulative concentration-response curve, L-[…]×10^-2 M final bath concentration) is added to inhibit bioconversion of LTD4 to LTE4. Only one LTD4 concentration-response curve is constructed in each tissue. All responses to LTD4 are calculated as a percentage of the reference contraction to carbachol. LTD4 antagonist activity is determined by comparison of the concentration response curves of LTD4 in the presence and absence of antagonist. Assessment of the relative rightward shift of the antagonist treated curve relative to the solvent (control) treated tissue is calculated as a concentration ratio (Eq. A) and used in subsequent calculations to derive an antagonist pKB value (Eqs B&C). In the event that the maximum response to LTD4 is depressed, the EC50 for that particular curve is determined, an "apparent" pKB reported, and the compound reported as "not-competitive."

[6] = A23187 10 μM, read-out: 50% Inhibitory Concentration (IC50)
[7] = antagonist concentration 1 × 10^-5 M
[8] = antagonist concentration 1 × 10^-6 M

Structure (SMILES) | inhibition in vivo at 25 mg/kg ([1]; intraduodenal, intraduodenally) [%] | inhibition in vivo at 50 mg/kg [2] [%] | also measured
COc1ccc(-c2nc(COc3cccc(NS(=O)(=O)C(F)(F)F)c3)c(C)o2)cc1 [Example 1, 1,1,1-Trifluoro-N-[3-[[2-(4-methoxyphenyl)-5-methyl-4-oxazolyl]methoxy]phenyl]methanesulfonamide] | 24 | 34 | –
Cc1oc(-c2ccccc2)nc1COc1cccc(NS(=O)(=O)C(F)(F)F)c1 [Example 2, 1,1,1-Trifluoro-N-[3-[(5-methyl-2-phenyl-4-oxazolyl)methoxy]phenyl]methanesulfonamide] | 56 | 18 | –
O=S(=O)(Nc1ccccc1OCc1csc(-c2ccccc2)n1)C(F)(F)F [Example 4, 1,1,1-Trifluoro-N-[2-[(2-phenyl-4-thiazolyl)methoxy]phenyl]methanesulfonamide] | 10 | – | –
c1ccc(-c2nc(COc3cccc(Cc4nnn[nH]4)c3)cs2)cc1 [Example 5, 5-[[3-(2-Phenyl-4-thiazolylmethoxy)phenyl]methyl]-1H-tetrazole] | 69 | – | –
CCN(CC)C(=O)N(C)CC(O)c1cccc(OCc2csc(-c3ccccc3)n2)c1 (stereo not shown) [Example 6, N,N-Diethyl-N'-[2-hydroxy-2-[3-(2-phenyl-4-thiazolylmethoxy)phenyl]ethyl]-N-methylurea] | 47 | 57 | –
O=S(=O)(Nc1cccc(OCc2cccc(-c3ccccc3)n2)c1)C(F)(F)F [Example 7, 1,1,1-Trifluoro-N-[3-[(2-phenyl-6-pyridinyl)methoxy]phenyl]methanesulfonamide] | 68 | – | –
Cc1ccc(S(=O)(=O)NC(=O)c2cccc(OCc3csc(-c4ccccc4)n3)c2)cc1 [Example 8, N-[(4-Methylphenyl)sulfonyl]-3-[(2-phenyl-4-thiazolyl)methoxy]benzamide] | 62 | 51 | inhibition at 10 µM ([3]; 10 μM): 55%; inhibition at 10 µM ([4]; 10 μM): 44%
O=S(=O)(Nc1cccc(OCc2csc(-c3ccc(Cl)cc3)n2)c1)C(F)(F)F [Example 9A, 1,1,1-Trifluoro-N-[3-[[2-(4-chlorophenyl)-4-thiazolyl]methoxy]phenyl]methanesulfonamide] | 54 | 60 | IC50 [3, 6]: 5200 nM; IC50 [4, 6]: 7100 nM
O=S(=O)(Nc1cccc(OCc2csc(-c3ccccc3F)n2)c1)C(F)(F)F [Example 9C, 1,1,1-Trifluoro-N-[3-[[2-(2-fluorophenyl)-4-thiazolyl]methoxy]phenyl]methanesulfonamide] | 73 | 53 | inhibition in vivo at 10 mg/kg ([1]; po, 10 mg/kg, intragastrically): 89%
O=S(=O)(Nc1cccc(OCc2csc(-c3c(F)cccc3F)n2)c1)C(F)(F)F [Example 9D, 1,1,1-Trifluoro-N-[3-[[2-(2,6-difluorophenyl)-4-thiazolyl]methoxy]phenyl]methanesulfonamide] | 72 | 37 | –
O=S(=O)(Nc1cccc(OCc2csc(-c3ccc(C(F)(F)F)cc3)n2)c1)C(F)(F)F [Example 9E, 1,1,1-Trifluoro-N-[3-[[2-(4-trifluoromethylphenyl)-4-thiazolyl]methoxy]phenyl]-methanesulfonamide] | – | 66 | –
O=S(=O)(Nc1cccc(OCc2csc(-c3cccc(C(F)(F)F)c3)n2)c1)C(F)(F)F [Example 9F, 1,1,1-Trifluoro-N-[3-[[2-(3-trifluoromethylphenyl)-4-thiazolyl]methoxy]phenyl]methanesulfonamide] | 50 | 23 | –
O=S(=O)(Nc1cccc(OCc2csc(Cc3ccccc3)n2)c1)C(F)(F)F [Example 9I, 1,1,1-Trifluoro-N-[3-[[2-(benzyl)-4-thiazolyl]methoxy]phenyl]methanesulfonamide] | 94 | 22 | inhibition in vivo at 25 mg/kg ([1]; po, intragastrically): 47%
COC(=O)CCSC(SCCC(=O)OC)c1cccc(OCc2csc(-c3ccccc3)n2)c1 [Example 12] | – | – | Kb [5, 7]: 724 nM
COC(=O)CCSC(SCCC(=O)N(C)C)c1cccc(OCc2csc(-c3ccccc3)n2)c1 (stereo not shown) [Example 13, 3-[[[[3-(Dimethylamino)-3-oxopropyl]thio][[(2-phenyl-4-thiazolyl)methoxy]phenyl]methyl]thio]propanoic acid methyl ester] | – | – | Kb [5, 8]: 44.7 nM
CN(C)C(=O)CCSC(SCCC(=O)N(C)C)c1cccc(OCc2csc(-c3ccccc3)n2)c1 [Example 14, 3,3'-[[[3-[(2-Phenyl-4-thiazolyl)methoxy]phenyl]methylene]dithio]bis[N,N-dimethylpropanamide]] | – | – | Kb [5, 8]: 324 nM
O=C(O)CCSC(SCCC(=O)O)c1cccc(OCc2csc(-c3ccccc3)n2)c1 [Example 15, 3,3'-[[3-[(2-Phenyl-4-thiazolyl)methoxy]phenyl]methylene]dithiobis[propanoic acid]] | – | – | Kb [5, 7]: 912 nM
CN(C)C(=O)CCSC(SCCC(=O)O)c1cccc(OCc2csc(-c3ccccc3)n2)c1 (stereo not shown) [Example 16, 3-[[[[3-(Dimethylamino)-3-oxopropyl]thio][3-[(2-phenyl-4-thiazolyl)methoxy]phenyl]methyl]thio]propanoic acid] | – | – | Kb [5, 8]: 72.4 nM
COc1ccc2c(c1)c(CC(=O)O)c(C)n2C(=O)c1ccc(Cl)cc1 [Indomethacin, reference compound] | – | – | ED50 ([2]; 3 h, read-out: Oral ED50 (95% C.L.)): 3.7 mg/kg
